Laboratory results taken from patent US7192906B2, “Substituted pyrazole derivatives, production process thereof, and herbicide compositions containing the derivatives” (SDS Biotech K.K., priority 2001, dated 2007).

Tests used:
Type in all cases: in vivo
Digitaria adscendens [1] = experiment: Test Example 1 upland field foliage treatment; details: Table 4, upland field foliage treatment, index 0-5
In short: (§1)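 Post-emergence foliar spray, 1 kg a.i./ha, wettable powder diluted in water, applied 14 d after sowing in upland soil. Rating 21 d post-application, 0–5 scale: 5 ≥90%, 4 70–<90%, 3 50–<70%, 2 30–<50%, 1 10–<30%, 0 <10% effect or injury.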

Setaria viridis [2] = experiment: Test Example 1 upland field foliage treatment; details: Table 4, upland field foliage treatment, index 0-5
In short: as §1

Chenopodium album [3] = experiment: Test Example 1 upland field foliage treatment; details: Table 4, upland field foliage treatment, index 0-5
In short: as §1

Stellaria media [4] = experiment: Test Example 1 upland field foliage treatment; details: Table 4, upland field foliage treatment, index 0-5
In short: as §1

[5] = tested on: wheat (Triticum aestivum); experiment: Test Example 1 upland field foliage treatment, crop phytotoxicity; details: Table 4, upland field foliage treatment, index 0-5
In short: as §1

soybean (Glycine max) [6] = experiment: as above; details: Table 4, upland field foliage treatment, index 0-5
In short: as §1

[7] = tested on: wheat (Triticum aestivum); experiment: Test Example 2 upland soil treatment, crop phytotoxicity; details: Table 5, upland soil treatment, index 0-5
Method: (§2) A plastic pot of 130 cm^2 was filled with upland soil. Subsequently, weed seeds of Setaria viridis, Digitaria adscendens, Chenopodium album and Stellaria media, and crop seeds of soybean (Glycine max) and wheat (Triticum aestivum), were sowed and covered with soil of about 1 cm thickness. On the next day after the sowing, the wettable powder prepared in Formulation Example 1 was diluted with water such that the amount of the active ingredient became 1 kg per hectare, and then uniformly applied to the soil surface. On the 21st day after the application, observation and evaluation were carried out according to the aforesaid criteria.
(§3) Herbicidal activity was evaluated based on the following criteria.
(§4) • 5: herbicidal effect of not less than 90%, or phytotoxicity of 90% or more • 4: herbicidal effect of not less than 70% and less than 90%, or phytotoxicity of 70% or more and less than 90% • 3: herbicidal effect of not less than 50% and less than 70%, or phytotoxicity of 50% or more and less than 70% • 2: herbicidal effect of not less than 30% and less than 50%, or phytotoxicity of 30% or more and less than 50% • 1: herbicidal effect of not less than 10% and less than 30%, or phytotoxicity of 10% or more and less than 30% • 0: herbicidal effect of not less than 0% and less than 10%, or phytotoxicity of 0% or more and less than 10%

soybean (Glycine max) [8] = experiment: as above; details: Table 5, upland soil treatment, index 0-5
Method: as §2, §3, §4

Digitaria adscendens [9] = experiment: Test Example 2 upland soil treatment; details: Table 5, upland soil treatment, index 0-5
Method: as §2, §3, §4

Setaria viridis [10] = experiment: Test Example 2 upland soil treatment; details: Table 5, upland soil treatment, index 0-5
Method: as §2, §3, §4

Chenopodium album [11] = experiment: Test Example 2 upland soil treatment; details: Table 5, upland soil treatment, index 0-5
Method: as §2, §3, §4

Stellaria media [12] = experiment: Test Example 2 upland soil treatment; details: Table 5, upland soil treatment, index 0-5
Method: as §2, §3, §4

SMILES	Herbicidal activity DA: Digitaria adscendens (Digitaria adscendens [1])	Herbicidal activity SV: Setaria viridis (Setaria viridis [2])	Herbicidal activity CA: Chenopodium album (Chenopodium album [3])	Herbicidal activity SM: Stellaria media (Stellaria media [4])	Herbicidal activity (phytotoxicity) TA: Wheat (Triticum aestivum) [5]	Herbicidal activity (phytotoxicity) GM: Soybean (Glycine max) (soybean (Glycine max) [6])	Herbicidal activity (phytotoxicity) TA: Wheat (Triticum aestivum) [7]	Herbicidal activity (phytotoxicity) GM: Soybean (Glycine max) (soybean (Glycine max) [8])	Herbicidal activity DA: Digitaria adscendens (Digitaria adscendens [9])	Herbicidal activity SV: Setaria viridis (Setaria viridis [10])	Herbicidal activity CA: Chenopodium album (Chenopodium album [11])	Herbicidal activity SM: Stellaria media (Stellaria media [12])
CNC(=O)C(Cn1cc(C)c(-c2ccc(F)cc2Cl)n1)=NOC [Compound 82]	5 (herbicidal effect of not less than 90%, or phytotoxicity of 90% or more)	3 (herbicidal effect of not less than 50% and less than 70%, or phytotoxicity of 50% or more and less than 70%)	4 (herbicidal effect of not less than 70% and less than 90%, or phytotoxicity of 70% or more and less than 90%)	4 (herbicidal effect of not less than 70% and less than 90%, or phytotoxicity of 70% or more and less than 90%)	0 (herbicidal effect of not less than 0% and less than 10%, or phytotoxicity of 0% or more and less than 10%)	0 (herbicidal effect of not less than 0% and less than 10%, or phytotoxicity of 0% or more and less than 10%)	0 (herbicidal effect of not less than 0% and less than 10%, or phytotoxicity of 0% or more and less than 10%)	0 (herbicidal effect of not less than 0% and less than 10%, or phytotoxicity of 0% or more and less than 10%)	5 (herbicidal effect of not less than 90%, or phytotoxicity of 90% or more)	4 (herbicidal effect of not less than 70% and less than 90%, or phytotoxicity of 70% or more and less than 90%)	4 (herbicidal effect of not less than 70% and less than 90%, or phytotoxicity of 70% or more and less than 90%)	5 (herbicidal effect of not less than 90%, or phytotoxicity of 90% or more)
CNC(=O)C(Cn1ccc(-c2ccccc2)n1)=NOC [Compound 13]	4 (herbicidal effect of not less than 70% and less than 90%, or phytotoxicity of 70% or more and less than 90%)	3 (herbicidal effect of not less than 50% and less than 70%, or phytotoxicity of 50% or more and less than 70%)	4 (herbicidal effect of not less than 70% and less than 90%, or phytotoxicity of 70% or more and less than 90%)	4 (herbicidal effect of not less than 70% and less than 90%, or phytotoxicity of 70% or more and less than 90%)	0 (herbicidal effect of not less than 0% and less than 10%, or phytotoxicity of 0% or more and less than 10%)	0 (herbicidal effect of not less than 0% and less than 10%, or phytotoxicity of 0% or more and less than 10%)	0 (herbicidal effect of not less than 0% and less than 10%, or phytotoxicity of 0% or more and less than 10%)	0 (herbicidal effect of not less than 0% and less than 10%, or phytotoxicity of 0% or more and less than 10%)	4 (herbicidal effect of not less than 70% and less than 90%, or phytotoxicity of 70% or more and less than 90%)	4 (herbicidal effect of not less than 70% and less than 90%, or phytotoxicity of 70% or more and less than 90%)	5 (herbicidal effect of not less than 90%, or phytotoxicity of 90% or more)	5 (herbicidal effect of not less than 90%, or phytotoxicity of 90% or more)
CNC(=O)C(Cn1cc(C)c(-c2ccccc2)n1)=NOCc1ccccc1 [Compound 106]	3 (herbicidal effect of not less than 50% and less than 70%, or phytotoxicity of 50% or more and less than 70%)	3 (herbicidal effect of not less than 50% and less than 70%, or phytotoxicity of 50% or more and less than 70%)	3 (herbicidal effect of not less than 50% and less than 70%, or phytotoxicity of 50% or more and less than 70%)	3 (herbicidal effect of not less than 50% and less than 70%, or phytotoxicity of 50% or more and less than 70%)	0 (herbicidal effect of not less than 0% and less than 10%, or phytotoxicity of 0% or more and less than 10%)	0 (herbicidal effect of not less than 0% and less than 10%, or phytotoxicity of 0% or more and less than 10%)	0 (herbicidal effect of not less than 0% and less than 10%, or phytotoxicity of 0% or more and less than 10%)	0 (herbicidal effect of not less than 0% and less than 10%, or phytotoxicity of 0% or more and less than 10%)	4 (herbicidal effect of not less than 70% and less than 90%, or phytotoxicity of 70% or more and less than 90%)	3 (herbicidal effect of not less than 50% and less than 70%, or phytotoxicity of 50% or more and less than 70%)	4 (herbicidal effect of not less than 70% and less than 90%, or phytotoxicity of 70% or more and less than 90%)	4 (herbicidal effect of not less than 70% and less than 90%, or phytotoxicity of 70% or more and less than 90%)
CNC(=O)C(Cn1cc(C)c(-c2ccc(F)c(C)c2)n1)=NOC [Compound 75]	5 (herbicidal effect of not less than 90%, or phytotoxicity of 90% or more)	5 (herbicidal effect of not less than 90%, or phytotoxicity of 90% or more)	5 (herbicidal effect of not less than 90%, or phytotoxicity of 90% or more)	5 (herbicidal effect of not less than 90%, or phytotoxicity of 90% or more)	0 (herbicidal effect of not less than 0% and less than 10%, or phytotoxicity of 0% or more and less than 10%)	0 (herbicidal effect of not less than 0% and less than 10%, or phytotoxicity of 0% or more and less than 10%)	0 (herbicidal effect of not less than 0% and less than 10%, or phytotoxicity of 0% or more and less than 10%)	1 (herbicidal effect of not less than 10% and less than 30%, or phytotoxicity of 10% or more and less than 30%)	4 (herbicidal effect of not less than 70% and less than 90%, or phytotoxicity of 70% or more and less than 90%)	4 (herbicidal effect of not less than 70% and less than 90%, or phytotoxicity of 70% or more and less than 90%)	5 (herbicidal effect of not less than 90%, or phytotoxicity of 90% or more)	5 (herbicidal effect of not less than 90%, or phytotoxicity of 90% or more)
CNC(=O)C(Cn1cc(C)c(-c2cc(F)cc(C(F)(F)F)c2)n1)=NOC [Compound 88]	5 (herbicidal effect of not less than 90%, or phytotoxicity of 90% or more)	4 (herbicidal effect of not less than 70% and less than 90%, or phytotoxicity of 70% or more and less than 90%)	5 (herbicidal effect of not less than 90%, or phytotoxicity of 90% or more)	5 (herbicidal effect of not less than 90%, or phytotoxicity of 90% or more)	0 (herbicidal effect of not less than 0% and less than 10%, or phytotoxicity of 0% or more and less than 10%)	0 (herbicidal effect of not less than 0% and less than 10%, or phytotoxicity of 0% or more and less than 10%)	0 (herbicidal effect of not less than 0% and less than 10%, or phytotoxicity of 0% or more and less than 10%)	0 (herbicidal effect of not less than 0% and less than 10%, or phytotoxicity of 0% or more and less than 10%)	4 (herbicidal effect of not less than 70% and less than 90%, or phytotoxicity of 70% or more and less than 90%)	4 (herbicidal effect of not less than 70% and less than 90%, or phytotoxicity of 70% or more and less than 90%)	5 (herbicidal effect of not less than 90%, or phytotoxicity of 90% or more)	5 (herbicidal effect of not less than 90%, or phytotoxicity of 90% or more)
